In patent publication US12324841B2, “Methods of treating cancer with a combination of an anti-PD-1 antibody and an anti-tissue factor antibody-drug conjugate” (GENMAB A/S, priority 2018, dated 2025):
Entries after “also recorded” stand apart in the source; their conditions may differ. Non-standard residues stand in square brackets, D forms with d. Residues, ends and D or L forms follow the SMILES beside them. *: point of attachment. Dolaproine = CO[C@@H]([C@@H]1CCCN1)[C@@H](C)C(=O)O; Dil = CC[C@H](C)[C@H](NC)[C@@H](CC(=O)O)OC; X1 = C[C@@H](N*)[C@@H](O)c1ccccc1; NMeV = CN[C@H](C(=O)O)C(C)C

Experiments:
[1] = test system: HPAFII (pancreatic carcinoma); assay: Western blot analysis of ER stress induction in HPAFII cells; type: cell-based; conditions: 18 hours (legend: 16 hours)
Description: (§1) Induction of cell death and release of ICD danger signals occurs concomitant with initiation of an ER stress response. Two Tissue Factor positive cell lines, HPAFII (pancreatic carcinoma) and MDA-MB-231 (breast cell carcinoma) were exposed to tisotumab vedotin ADC, an Isotype-MMAE ADC (H00-MMAE, IgG1 MMAE), or free MMAE for 18 hours and induction of ER stress monitored by western blot analysis. Phosphorylation of inositol-requiring transmembrane kinase/endonuclease 1 (IRE1) was detected after treatment with tisotumab vedotin ADC or MMAE free drug (FIG. 6). […] The ability for auristatins to prime the immune system to recognize tumor antigens opens the door for a myriad of combinatorial therapeutic options.

[2] = test system: murine tumor cells that stably express human TF; assay: Syngeneic tumor model: immunization with drug-killed human TF positive murine tumor cells, then tumor challenge; type: in vivo, Balb/c mice; conditions: mice immunized with tumor cells killed by 1-5 μg per ml tisotumab vedotin or 100 nM MMAE
Description: Mouse tumor cells are transfected with plasmid constructs encoding human tissue factor (TF) and sgRNA-guided Cas9 nuclease (sgRNA/Cas9) to generate a murine cell line that expresses the human TF. Fluorescence activated cell sorting (FACS) yields a clonal population of murine tumor cells that stably express human TF, these cells are then treated with 1 μg to 5 μg per ml of tisotumab vedotin or 100 nM of MMAE for 4 days. In order to prepare dying cells for immunization, treated murine tumor cells are overlaid atop Histopaque, and centrifuged at 2000 g for 30 minutes. Dead and dying cells are pelleted underneath the Histopaque layer, and viability assessed by trypan blue exclusion. A sample with approximately <20% live cells as measured by trypan blue exclusion is obtained. Flash-frozen tumor cells are prepared by submerging the cells in liquid nitrogen for 10 seconds, followed by immersion in 37° C. water until completely thawed. The liquid nitrogen freeze-thaw process is repeated 5 times. Dead and dying human TF positive tumor cells are resuspended in phosphate buffered saline (PBS) and 2×10^6 cells are injected into the peritoneum of immune-competent Balb/c mice. Seven days later, mice receive a second immunization with dead and dying cells prepared in the same manner.
Fourteen days after initial immunization with the dead and dying human TF positive tumor cells, mice are subcutaneously implanted with 5×10^6 wild-type tumor cells and monitored for tumor growth. […] As these effects occur in the absence of any administered therapeutic agent, the administration of cells killed by tisotumab vedotin or MMAE is sufficient to generate long-lasting protective immune memory against subsequent tumor cell challenge. Protective immune memory is amplified by treating these mice with tisotumab vedotin in combination with an antibody that binds to murine PD-1.

[3] = test system: T cells; assay: T cell activation in CSFE labeled PBMCs fed killed MDA-MB-231 cells, with or without pembrolizumab; type: cell-based, human; conditions: 48 hours; for T cell proliferation (CSFE dilution) / production of IFNγ / production of IL12p70: without pembrolizumab
Description: FIG. 8A-8C is a series of graphs in which Tissue Factor positive MDA-MB-231 cells killed with various agents were fed to CSFE labeled human peripheral blood mononuclear cells (PBMCs) in the presence or absence of the PD1 targeting antibody pembrolizumab for 48 hours and T cells activation assessed by A) decreased CSFE fluorescent indicative of T cell proliferation and B) and C) cytokine production.
Induction of the innate immune response following exposure to cancer cells undergoing ICD sets up secondary T cell activation, which can be enhanced by concomitant pembrolizumab treatment.

[4] = test system: Tissue Factor positive cell lines; assay: Cell death and release of ATP and HMGB1 from Tissue Factor positive cell lines; type: cell-based
From the text: Auristatin ADC payloads disrupt the microtubule networks resulting in altered ER localization and function, which ultimately results in ER stress.

[5] = test system: HeLa cells; assay: ATP and HMGB1 secretion from HeLa cells treated with MMAE; type: cell-based; conditions: 100 nM MMAE, over 24 hours, vs untreated HeLa cells
From the text: Induction of ICD is also characterized by the secretion of ATP and HMGB1. Extracellular ATP serves as a strong chemotactic signal, promoting immune cell migration to the tumor site. Upon arrival, extracellular HMGB1 signals through various pro-inflammatory receptors (TLR2, TLR4, RAGE) to activate antigen-presenting cells, thereby promoting immune activity within the tumor.

[6] = test system: MDA-MB-231 (breast cell carcinoma); assay: Western blot analysis of ER stress induction in MDA-MB-231 cells; type: cell-based; conditions: MDA-MB-231, 18 hours (legend: 16 hours)
Description: as §1

[7] = test system: HeLa cells; assay: Imaging of RFP-labeled tubulin and ER-binding dye in HeLa cells treated with MMAE; type: cell-based; conditions: 100 nM MMAE
Description: Treatment of HeLa cells with MMAE led to disassembly of the microtubule network and subsequent ER mislocalization. HeLa cells were transduced with a baculovirus encoding RFP-labeled Tubulin (CellLight Tubulin-RFP, ThermoFisher Scientific) and an ER-binding dye (ER-ID Green, Enzo Life Sciences). Cells were treated with 100 nM MMAE and imaged over time in the present of MMAE. Within 2 hours, fragmentation and disassembly of the microtubule network became evident, concurrent with the breakdown of the perinuclear organized ER lattice (FIGS. 2A and 2B). The condensed and mislocalized ER skeleton indicated severe ER stress within 8 hours.

[8] = test system: CD14+ monocyte/macrophages; assay: Monocyte/macrophage activation in PBMCs fed killed MDA-MB-231 cells; type: cell-based, human
From the text: FIGS. 7A and 7B is a series of graphs in which Tissue Factor positive MDA-MB-231 cells killed with various agents were fed to human peripheral blood mononuclear cells (PBMCs) and immune activation assessed by increased expression of activations markers on innate CD14+ monocyte/macrophages and induction of chemokine and cytokine production.
Immunogenic cell death, as mediated by MMAE, is regulated cell death that activates adaptive immune responses against antigens from dead and dying tumor cells, and allows for the generation of robust innate immune cell activation and subsequent cytotoxic T cell responses targeted towards specific tumor cell antigens. […] Furthermore, these monocyte/macrophages conditioned by ICD-killed cells promote activation of T cells, as evidenced by production of signature inflammatory cytokines associated with cytotoxic T cell responses.

[9] = test system: HeLa cells; assay: Western blot analysis of ER stress in HeLa cells treated with MMAE; type: cell-based; conditions: 100 nM MMAE for 16 hours
Description: HeLa cells, a cervical cancer cell line, were cultured in Minimum Essential Medium (MEM) with 10% FBS, 10 mM HEPES, 1 mM sodium pyruvate, 2 mM L-glutamine, penicillin (100U/ml), and streptomycin (100 μg/ml). HeLa cells were treated with 100 nM MMAE for 16 hours and harvested in radioimmunoprecipitation assay buffer (RIPA) buffer for western blot analysis. […] Severe ER stress is a prerequisite to the exposure of pro-phagocytic signals on the surface of tumor cells, and can be indicated by activation of JNK signaling by phosphorylated IRE1.

[10] = test system: advanced cervical cancer; conditions: in combination with chemotherapy; cited from earlier work
[11] = test system: MDA-MB-231 cells (breast adenocarcinoma); assay: MDA-MB-231 xenograft model in humanized NSG mice; type: in vivo; conditions: pembrolizumab alone, first dose 10 mg/kg, then 5 mg/kg every five days, IP
Description: Mice were subcutaneously inoculated with 5×10^6 MDA-MB-231 cells (breast adenocarcinoma; American Tissue Culture Collection (ATCC), cat. no. HTB-26), in 100 μL phosphate-buffered saline (PBS). Before inoculation, cells were cultured in DMEM with high glucose and HEPES without L-glutamine (Lonza, cat. no. BE12-[…]), 10% (v/v) donor bovine serum with iron New Zealand Origin (Thermo Fisher Scientific, DBSI, cat. no. 10371-029), 2 mM L-glutamine (Lonza, cat. no. BE17-[…]), 1 mM Na-pyruvate (Lonza, cat. no. BE13-[…]), MEM non-essential amino acids (Life Technologies, cat. no. 11140) and 1% (v/v) penicillin/streptomycin (Lonza, cat. no. DE17-[…]), in CellSTACK culture chambers (Corning, cat. no. 3313). Tumor size was determined by caliper measurement at least two times a week and tumor volume was calculated as 0.52×length×width^2. […] The first dose of the anti-PD-1 antibody (i.e., pembrolizumab) was 10 mg/kg, followed by 5 mg/kg every five days for a maximum of six treatments. […] The IgG1 isotype control antibody is the b12 antibody which is known to bind to HIV-1 gp120. […] Mice were housed in individually ventilated (IVC) cages, five mice per cage and identified by ear tags. […] Statistical comparison of tumor burden was performed using Mann-Whitney analysis on the last day that all treatment groups were intact. Kaplan-Meier analysis was performed based on tumor volume (>500 mm^3).

[12] = managed with interruptions of pembrolizumab, corticosteroids and/or other supportive care; cited from earlier work
[13] = test system: advanced cervical cancer; conditions: Pembrolizumab 200 mg Q3W, 82 patients; cited from earlier work
[14] = compared to IgG1-MMAE ADC or tisotumab alone

## CC[C@H](C)[C@@H]([C@@H](CC(=O)N1CCC[C@H]1[C@H](OC)[C@@H](C)C(=O)N[C@H](C)[C@@H](O)c1ccccc1)OC)N(C)C(=O)[C@@H](NC(=O)[C@@H](NC)C(C)C)C(C)C [MMAE, Monomethyl auristatin E, reference compound] (H-[NMeV]V[Dil][Dolaproine]-X1)
[1]
  ATF4 cleavage (PERK pathway): upregulation of ATF4 cleavage
  phosphorylation of IRE1: detected
  phosphorylation of JNK: increased phosphorylation
[2]
  survival after challenge with wild-type tumor cells: increased survival
  tumor growth after challenge with wild-type tumor cells: delayed tumor growth
[3]
  T cell proliferation (CSFE dilution): drove T cell proliferation
  production of IFNγ: production of T cell specific cytokines such as IL12P70 and IFNγ
  production of IL12p70: production of T cell specific cytokines such as IL12P70 and IFNγ
[4]; FIG. 5A
  ATP release/secretion: drove robust A) ATP secretion; also recorded: specific to tisotumab vedotin ADC and MMAE treatment
[4]; FIG. 5C
  HMGB1 release/secretion: drove robust A) ATP secretion and C) HMGB1 release; also recorded: specific to tisotumab vedotin ADC and MMAE treatment
[5]
  secretion of ATP: increased secretion of ATP and HMGB1
  secretion of HMGB1: increased secretion of ATP and HMGB1
[6]
  ATF4 cleavage (PERK pathway): upregulation of ATF4 cleavage
  phosphorylation of IRE1: detected
  phosphorylation of JNK: increased phosphorylation
[7]
  time until fragmentation and disassembly of the microtubule network, with breakdown of the perinuclear ER lattice: ≤ 2 h
  time until severe ER stress (condensed and mislocalized ER skeleton): ≤ 8 h
[8]
  chemotactic and inflammatory mediators from monocyte/macrophages after uptake of dead cells: elicit strong chemotactic and inflammatory mediators
[8]; [14]
  monocyte/macrophage activation, CD86 expression by flow cytometry: drove monocyte/macrophage activations
  release of innate chemokines including MIP 1β: induced release of innate chemokines including MIP 1β
[9]
  phosphorylation of IRE1: led to phosphorylation of the serine threonine kinase IRE1
  phosphorylation of JNK: elicited severe ER stress by phosphorylation of IRE1 and JNK

## Bevacizumab: an anti-VEGF antibody
[10]
  overall survival in clinical trials: improved overall survival

## pembrolizumab: anti-PD-1 antibody, a checkpoint inhibitor; heavy chain SEQ ID NO:33 and light chain SEQ ID NO:34 [reference compound]
[3]; 2 mg/ml of pembrolizumab
  T cell proliferation driven by tisotumab vedotin or MMAE killed cells, effect of added pembrolizumab: enhanced
[3]; concomitant pembrolizumab
  production of IFNγ after tisotumab vedotin or MMAE killed cells, effect of added pembrolizumab: increased by concomitant pembrolizumab treatment
  production of IL12p70 after tisotumab vedotin or MMAE killed cells, effect of added pembrolizumab: increased by concomitant pembrolizumab treatment
[11]
  tumor burden as assessed by tumor volume: hardly reduced tumor burden
[12]
  reversibility of immune-related AEs (irAEs): most irAEs were reversible
[13]
  objective response rate: 12%

## tisotumab: anti-TF antibody 011; heavy chain variable region SEQ ID NO:7, light chain variable region SEQ ID NO:8
[3]
  T cell proliferation (CSFE dilution): did not elicit these responses
  production of IFNγ: did not elicit these responses
  production of IL12p70: did not elicit these responses
